Measured values from US9493451B2 (Bionomics Limited, priority 2011, dated 2016).

Biological target: T1, Kv1.3 (Homo sapiens, UniProt P22001)
T1 construct: expressed in transfected cells; host or cells: CHO (Kv1.3/CHO)
Experiment: Electrophysiology: planar patch-clamp of Kv1.3 currents, IC50 from steady state current amplitude
Type: cell-based
Conditions: Kv1.3 electrophysiology, results according to Method D1, read-out: IC50 (Kv1.3 ephys steady state)
Description: The inhibition data shown for the compounds of the list below was calculated using the steady state current amplitude at the end of the depolarising pulse in patch clamp evaluations (as described in the Biology Protocols: 1. Electrophysiology).
Kv1.x currents were measured in Kv1.3/CHO or Kv1.5/CHO cells using a planar electrode version (Nanion Technologies GMBH) of the patch-clamp technique. Whole-cell Kv1.x current transients were evoked by 500 ms depolarising voltage pulses to +40 mV from a holding potential of −80 mV applied at 10 s intervals for Kv1.5 and at 30 s intervals for Kv1.3 to allow adequate time for recovery from inactivation. Cells were continuously bathed in a buffered saline solution containing (mM): 160 NaCl, 4.5 KCl, 2 CaCl2, 1 MgCl2, 5 glucose, 10 HEPES, pH 7.4, 290-310 mOsm·Kg^−1. The internal (pipette) solution contained (mM): 10 NaCl, 70 KF, 75 KCl, 2 MgCl2, 10 HEPES, 10 EGTA, pH 7.2, 290-310 mOsm·Kg^−1. Series resistance compensation (60-80%) was applied to cells in which the peak current amplitude exceeded 2 nA.
Compound Preparation and Potency Assessment
Compounds were initially dissolved in DMSO to 10 mM. After further dilution in DMSO, compounds were finally diluted in bath solution 1/200 (to give a final DMSO concentration of 0.5%) and applied directly to the recording chamber. Compounds were added at increasing concentrations allowing ample time for steady state block to be achieved between each concentration. Each compound was tested at 5-6 different concentrations on 2-3 cells. Compound IC50 values were determined by fitting the average normalised reduction of either the current integral or the steady state current amplitude at the end of the 500 ms depolarising pulse obtained at each compound concentration to the Hill equation. The IC50 data reported herein is based on the steady state calculation.

T1 sequence (P22001 whole entry): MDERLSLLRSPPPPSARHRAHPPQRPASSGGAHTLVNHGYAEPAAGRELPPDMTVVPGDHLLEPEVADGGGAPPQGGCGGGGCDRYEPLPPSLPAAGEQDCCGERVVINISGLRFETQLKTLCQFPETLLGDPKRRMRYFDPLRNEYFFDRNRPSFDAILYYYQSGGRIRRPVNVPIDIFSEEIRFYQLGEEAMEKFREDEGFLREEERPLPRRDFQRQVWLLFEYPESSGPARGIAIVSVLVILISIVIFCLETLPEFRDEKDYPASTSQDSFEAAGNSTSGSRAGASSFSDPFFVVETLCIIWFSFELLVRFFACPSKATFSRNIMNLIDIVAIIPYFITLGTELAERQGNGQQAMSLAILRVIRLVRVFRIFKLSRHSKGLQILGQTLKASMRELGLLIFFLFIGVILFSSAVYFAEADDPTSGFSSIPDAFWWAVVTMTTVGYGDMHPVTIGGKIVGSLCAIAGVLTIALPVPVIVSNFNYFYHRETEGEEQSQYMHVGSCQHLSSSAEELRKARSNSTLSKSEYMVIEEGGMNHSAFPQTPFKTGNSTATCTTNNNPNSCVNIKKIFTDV

| SMILES | IC50 [nM] |
| --- | --- |
| CC(C)C(c1ccc(OC(F)F)cc1)N(Cc1ccc(F)cn1)C(=O)C1CC1c1ccc(F)cc1F (centres unmarked) [Example 115] | 50 to 200 |
| CCC(c1ccc(S(=O)(=O)CC)cc1)N(Cc1ccc(F)cn1)C(=O)C1CC1c1ccc(F)cc1 (centres unmarked) [Example 116] | 200 to 1000 |
| CCC(c1ccc(S(=O)(=O)CC)cc1)N(Cc1ccc(F)cn1)C(=O)C1CC1c1ccc(F)cc1 (centres unmarked) [Example 117] | 50 to 200 |
| CCC(c1ccc(S(=O)(=O)CC)cc1)N(Cc1cccnn1)C(=O)C1CC1c1ccc(F)cc1 (centres unmarked) [Example 118] | 1000 to 2000 |
| CCC(c1ccc(S(=O)(=O)CC)cc1)N(Cc1ccc(C(F)(F)F)nc1)C(=O)C1CC1c1ccc(F)cc1F (centres unmarked) [Example 119] | 50 to 200 |
| CCC(c1ccc(S(C)(=O)=O)cc1)N(Cc1ccc(C(F)(F)F)nc1)C(=O)C1CC1c1ccc(F)cc1 (centres unmarked) [Example 120] | 200 to 1000 |
| CCC(c1ccc(S(C)(=O)=O)cc1)N(Cc1ccc(C(F)(F)F)nc1)C(=O)C1CC1c1ccc(F)cc1 (centres unmarked) [Example 121] | 50 to 200 |
| CCC(c1ccc(S(C)(=O)=O)cc1)N(Cc1ccc(F)cn1)C(=O)C1CC1c1ccc(F)cc1 (centres unmarked) [Example 122] | 50 to 200 |
| CC(c1ccc(S(C)(=O)=O)cc1)N(Cc1cccnn1)C(=O)C1CC1c1ccc(F)cc1 (centres unmarked) [Example 123] | 200 to 1000 |
| CCC(c1ccc(S(C)(=O)=O)cc1)N(Cc1cccnn1)C(=O)C1CC1c1ccc(F)cc1 (centres unmarked) [Example 124] | 200 to 1000 |
| CCC(c1ccc(S(C)(=O)=O)cc1)N(Cc1cccnn1)C(=O)C1CC1c1ccc(F)cc1 (centres unmarked) [Example 125] | 1000 to 2000 |
| CC(c1ccc(S(C)(=O)=O)cc1)N(Cc1ccc(C(F)(F)F)nc1)C(=O)C1CC1c1ccc(F)cc1 (centres unmarked) [Example 126] | 200 to 1000 |
| CCC(c1ccc(S(C)(=O)=O)cc1)N(Cc1ccc(C(F)(F)F)nc1)C(=O)C1CC1c1ccc(F)cc1F (centres unmarked) [Example 127] | 50 to 200 |
| CCC(c1ccc(S(C)(=O)=O)cc1)N(Cc1ccc(C(F)(F)F)nc1)C(=O)C1CC1c1ccc(F)cc1F (centres unmarked) [Example 128] | 50 to 200 |
| CCC(c1ccc(S(C)(=O)=O)cc1)N(Cc1ccc(C(F)(F)F)nc1)C(=O)C1CC1c1ccc(F)cc1F (centres unmarked) [Example 129] | 50 to 200 |
| CCC(c1ccc(S(=O)(=O)C(C)C)cc1)N(Cc1cccnn1)C(=O)C1CC1c1ccc(F)cc1 (centres unmarked) [Example 130] | 200 to 1000 |
| CN1CCC(C(c2ccc(OC(F)F)cc2)N(C(=O)C2CC2c2ccc(F)cc2)C2CCOCC2)CC1 (centres unmarked) [Example 140] | 1000 to 2000 |
| CN1CCC(C(c2ccc(OC(F)F)cc2)N(Cc2ccc(F)cn2)C(=O)C2CC2c2ccc(F)cc2)CC1 (centres unmarked) [Example 142] | 200 to 1000 |
| CCS(=O)(=O)c1cccc(C(C2CCN(C)CC2)N(Cc2ccc(F)cn2)C(=O)C2CC2c2ccc(F)cc2)c1 (centres unmarked) [Example 143] | 200 to 1000 |
| CN1CCC(C(c2ccc(F)cc2F)N(Cc2ccc(F)cn2)C(=O)C2CC2c2ccc(F)cc2)CC1 (centres unmarked) [Example 144] | 200 to 1000 |
| CN1CCC(C(c2ccc(F)cc2F)N(Cc2ncccc2F)C(=O)C2CC2c2ccc(F)cc2)CC1 (centres unmarked) [Example 145] | 200 to 1000 |
| CN1CCC(C(c2cccc(C(F)(F)F)c2)N(Cc2ccc(F)cn2)C(=O)C2CC2c2ccc(F)cc2)CC1 (centres unmarked) [Example 146] | 200 to 1000 |
| CN1CCC(C(c2cccc(C(F)(F)F)c2)N(Cc2ccc(F)cn2)C(=O)C2CC2c2ccc(F)cc2)CC1 (centres unmarked) [Example 147] | 200 to 1000 |
| CN1CCC(C(c2cccc(C(F)(F)F)c2)N(Cc2cncc(F)c2)C(=O)C2CC2c2ccc(F)cc2)CC1 (centres unmarked) [Example 148] | 200 to 1000 |
| CN1CC(C(c2ccc(OC(F)F)cc2)N(Cc2ncccc2F)C(=O)C2CC2c2ccc(F)cc2)C1 (centres unmarked) [Example 150] | 200 to 1000 |
| CN1CC(C(c2ccc(OC(F)F)cc2)N(Cc2ncccc2F)C(=O)C2CC2c2ccc(F)cc2)C1 (centres unmarked) [Example 151] | 200 to 1000 |
| O=C(C1CC1c1ccc(F)cc1)N(Cc1ccc(F)cn1)C(c1ccc(OC(F)F)cc1)C1CNC1 (centres unmarked) [Example 152] | 200 to 1000 |

| SMILES | IC50 [nM] |
| --- | --- |
| O=C(C1CC1c1ccc(F)cc1)N(Cc1ccc(F)cn1)C(c1ccc(OC(F)F)cc1)C1CNC1 (centres unmarked) [Example 153] | 1000 to 2000 |
| CN1CC(C(c2ccc(OC(F)F)cc2)N(Cc2ccc(F)cn2)C(=O)C2CC2c2ccc(F)cc2)C1 (centres unmarked) [Example 154] | 200 to 1000 |
| CN1CC(C(c2ccc(F)cc2)N(Cc2ncccc2F)C(=O)C2CC2c2ccc(F)cc2)C1 (centres unmarked) [Example 155] | 200 to 1000 |
| CN1CC(C(c2ccc(F)cc2)N(Cc2ncccc2F)C(=O)C2CC2c2ccc(F)cc2)C1 (centres unmarked) [Example 156] | 50 to 200 |
| O=C(C1CC1c1ccc(F)cc1)N(Cc1ncccc1F)C(c1ccc(F)cc1)C1CNC1 (centres unmarked) [Example 157] | 200 to 1000 |
| O=C(C1CC1c1ccc(F)cc1)N(Cc1ccc(F)cn1)C(c1ccc(F)cc1)C1CNC1 (centres unmarked) [Example 158] | 200 to 1000 |
| CN1CC(C(c2ccc(OC(F)(F)F)cc2)N(Cc2ccc(F)cn2)C(=O)C2CC2c2ccc(F)cc2)C1 (centres unmarked) [Example 159] | 200 to 1000 |
| CN1CC(C(c2ccc(OC(F)F)cc2)N(Cc2ccc(C(F)(F)F)cn2)C(=O)C2CC2c2ccc(F)cc2)C1 (centres unmarked) [Example 160] | 200 to 1000 |
| CN1CC(C(c2ccc(OC(F)F)cc2)N(Cc2ccc(C(F)(F)F)cn2)C(=O)C2CC2c2ccc(F)cc2)C1 (centres unmarked) [Example 161] | 200 to 1000 |
| CN1CC(C(c2ccc(OC(F)(F)F)cc2)N(Cc2cncc(F)c2)C(=O)C2CC2c2ccc(F)cc2)C1 (centres unmarked) [Example 162] | 200 to 1000 |
| CN1CC(C(c2ccc(OC(F)(F)F)cc2)N(Cc2cncc(F)c2)C(=O)C2CC2c2ccc(F)cc2)C1 (centres unmarked) [Example 163] | 200 to 1000 |
| O=C(C1CC1c1ccc(F)cc1)N(Cc1ncccc1F)C(c1ccc(F)cc1)C1CCOC1 (centres unmarked) [Example 171] | 200 to 1000 |
| O=C(C1CC1c1ccc(F)cc1)N(Cc1ncccc1F)C(c1ccc(F)cc1)C1CCOC1 (centres unmarked) [Example 172] | 50 to 200 |
| O=C(C1CC1c1ccc(F)cc1)N(Cc1cccnn1)C(c1ccc(F)cc1)C1CCOC1 (centres unmarked) [Example 173] | 50 to 200 |
| O=C(C1CC1c1ccc(F)cc1)N(Cc1cccnn1)C(c1ccc(F)cc1)C1CCOC1 (centres unmarked) [Example 174] | 50 to 200 |
| O=C(C1CC1c1ccc(F)cc1)N(Cc1ccc(F)cn1)C(c1ccc(F)cc1)C1CCOC1 (centres unmarked) [Example 175] | 200 to 1000 |
| O=C(C1CC1c1ccc(F)cc1)N(Cc1ccc(F)cn1)C(c1ccc(F)cc1)C1CCOC1 (centres unmarked) [Example 176] | 50 to 200 |
| O=C(C1CC1c1ccc(F)c(F)c1)N(Cc1cccnn1)C(c1ccc(OC(F)F)cc1)C1CC1 (centres unmarked) [Example 180] | 50 to 200 |
| O=C(C1CC1c1ccc(F)cc1F)N(Cc1cccnn1)C(c1ccc(OC(F)F)cc1)C1CC1 (centres unmarked) [Example 182] | 50 to 200 |
| O=C(C1CC1c1ccc(F)cc1)N(Cc1cnc[nH]1)C(c1ccc(OC(F)F)cc1)C1CC1 (centres unmarked) [Example 183] | 200 to 1000 |
| O=C(C1CC1c1cccc(C(F)(F)F)c1)N(Cc1cccnn1)C(c1ccc(OC(F)F)cc1)C1CC1 (centres unmarked) [Example 184] | 200 to 1000 |
| O=C(C1CC1c1ccc(F)cc1)N(CCN1CCCC(F)(F)C1)C(c1ccc(OC(F)F)cc1)C1CC1 (centres unmarked) [Example 186] | 200 to 1000 |
| Cn1ccnc1CN(C(=O)C1CC1c1ccc(F)cc1)C(c1ccc(OC(F)F)cc1)C1CC1 (centres unmarked) [Example 187] | 200 to 1000 |
| O=C(C1CC1c1ccccc1OC(F)(F)F)N(Cc1cccnn1)C(c1ccc(OC(F)F)cc1)C1CC1 (centres unmarked) [Example 188] | 50 to 200 |
| Cn1cncc1CN(C(=O)C1CC1c1ccc(F)cc1)C(c1ccc(OC(F)F)cc1)C1CC1 (centres unmarked) [Example 189] | 200 to 1000 |
| Cn1cc(CN(C(=O)C2CC2c2ccc(F)cc2)C(c2ccc(OC(F)F)cc2)C2CC2)cn1 (centres unmarked) [Example 190] | < 50 |
